Calls of active or inactive are those of the source. No cut-off for these calls is given here.
Experiments:
A549 [1] = assay: Antitumor activity against human A549 cells xenografted in BALB/c mouse assessed as vacuole formation at 0.5 mg/kg,ip administrated for 21 days by hematoxylin and eosin staining based microscopic analysis; assay type: functional, organism-based; details: time 21.0 day
HeLa = assay: Antiproliferative activity against human HeLa cells assessed as cell growth inhibition incubated for 72 hrs by SRB assay; assay type: functional, cell-based
A549 [2] = assay: Antitumor activity against human A549 cells xenografted in BALB/c mouse assessed as decrease in tumor weight at 0.5 mg/kg,ip administrated for 21 days; assay type: functional, organism-based; details: time 21.0 day
A549 [3] = assay: Induction of cell cycle arrest in human A549 cells assessed as accumulation of cells at G1 phase at 0.2 uM incubated for 24 hrs by PI staining based flow cytometric analysis (reference value: 65.6 %); assay type: functional
MDA-MB-231 = assay: Antiproliferative activity against human MDA-MB-231 cells assessed as cell growth inhibition incubated for 72 hrs by SRB assay; assay type: functional, cell-based; details: MDA-MB-231, 72 h
HepG2 = assay: Antiproliferative activity against human HepG2 cells assessed as cell growth inhibition incubated for 72 hrs by SRB assay; assay type: functional, cell-based; details: HepG2, 72 h
[4] = Selectivity index, ratio of IC50 for antiproliferative activity against human L02 cells to IC50 for antiproliferative activity against human A549 cells; assay type: toxicity, cell-based; details: L02 cells versus A549 cells, read-out: Ratio IC50
[5] = Selectivity index, ratio of IC50 for antiproliferative activity against human L02 cells to IC50 for antiproliferative activity against human MDA-MB-231 cells; assay type: toxicity, cell-based; details: L02 cells versus MDA-MB-231 cells, read-out: Ratio IC50
A549 [6] = assay: Antiproliferative activity against wild type human A549 cells assessed as cell growth inhibition incubated for 72 hrs by SRB assay; assay type: functional, cell-based; details: A549, 72 h
A549 [7] = assay: Antitumor activity against human A549 cells xenografted in BALB/c mouse assessed as increase in apoptosis at 0.5 mg/kg,ip administrated for 21 days by TUNEL staining based analysis; assay type: functional, organism-based; details: time 21.0 day
A549 [8] = assay: Induction of apoptosis in human A549 cells assessed as downregulation of Cyclin D1 expression incubated for 48 hrs by Western blotting analysis; assay type: functional, cell-based
HCT-116 = assay: Antiproliferative activity against human HCT-116 cells assessed as cell growth inhibition incubated for 72 hrs by SRB assay; assay type: functional, cell-based; details: HCT-116, 72 h
A549 [9] = assay: Induction of autophagy in human A549 cells assessed as upregulation of p62 protein expression at 0.1 to 0.5 uM incubated for 48 hrs by Western blotting analysis; assay type: functional, cell-based; details: dose 0.1-0.5 µM
A549 [10] = assay: Antiproliferative activity against human A549 cells with IGF2BP1 knockdown assessed as cell growth inhibition incubated for 72 hrs by SRB assay; assay type: functional, cell-based; details: A549, 72 h
A549 [11] = assay: Induction of apoptosis in human A549 cells assessed as downregulation of BCL-xl expression incubated for 48 hrs by Western blotting analysis; assay type: functional, cell-based
A549 [12] = assay: Induction of cell cycle arrest in human A549 cells assessed as accumulation of cells at G2 phase at 0.1 uM incubated for 24 hrs by PI staining based flow cytometric analysis (reference value: 9.26 %); assay type: functional
A549 [13] = assay: Induction of apoptosis in human A549 cells incubated for 48 hrs by Annexin V-FITC/PI staining based flow cytometric analysis; assay type: functional, cell-based
A549 [14] = assay: Induction of cell cycle arrest in human A549 cells assessed as accumulation of cells at S phase at 0.2 uM incubated for 24 hrs by PI staining based flow cytometric analysis (reference value: 23 %); assay type: functional
[15] = Antiproliferative activity against human L02 cells assessed as cell growth inhibition at 1 uM incubated for 72 hrs by SRB assay; assay type: toxicity, cell-based
A549 [16] = assay: Induction of apoptosis in human A549 cells assessed as increase in PARP cleavage incubated for 48 hrs by Western blotting analysis; assay type: functional, cell-based
SK-OV-3 = assay: Antiproliferative activity against human SK-OV-3 cells assessed as cell growth inhibition incubated for 72 hrs by SRB assay; assay type: functional, cell-based; details: SK-OV-3, 72 h
BXPC-3 = assay: Antiproliferative activity against human BXPC-3 cells assessed as cell growth inhibition incubated for 72 hrs by SRB assay; assay type: functional, cell-based; details: BXPC-3, 72 h
A549 [17] = assay: Induction of apoptosis in human A549 cells at 0.5 uM incubated for 48 hrs by Annexin V-FITC/PI staining based flow cytometric analysis; assay type: functional
[18] = Selectivity index, ratio of IC50 for antiproliferative activity against human L02 cells to IC50 for antiproliferative activity against human HCT-116 cells; assay type: toxicity, cell-based; details: L02 cells versus HCT-116 cells, read-out: Ratio IC50
[19] = Acute toxicity in C57BL/6J mouse assessed as death at 0.75 mg/kg,ip measured after 14 days; assay type: organism-based; details: in vivo, 336 h, time 14 day
[20] = Acute toxicity in BALB/c mouse xenografted with human A549 cells assessed as change in body weight at 0.5 mg/kg,ip administrated for 21 days; assay type: organism-based; details: in vivo, 504 h, time 21 day
[21] = Selectivity index, ratio of IC50 for antiproliferative activity against human L02 cells to IC50 for antiproliferative activity against human PANC-1 cells
A549 [22] = assay: Antitumor activity against human A549 cells xenografted in BALB/c mouse assessed as reduction in Ki67 expression in tumor at 0.5 mg/kg,ip administrated for 21 days by immunohistochemical analysis; assay type: functional, organism-based; details: time 21.0 day
A549 [23] = assay: Induction of apoptosis in human A549 cells assessed as downregulation of c-Myc expression incubated for 48 hrs by Western blotting analysis; assay type: functional, cell-based
A549 [24] = assay: Induction of apoptosis in human A549 cells assessed as downregulation of CDK4 expression incubated for 48 hrs by Western blotting analysis; assay type: functional, cell-based
A549 [25] = assay: Antitumor activity against human A549 cells xenografted in BALB/c mouse assessed as tumor growth inhibition at 0.5 mg/kg,ip administrated for 21 days; assay type: functional; details: A549, 504 h, time 21 day, read-out: TGI
[26] = Selectivity index, ratio of IC50 for antiproliferative activity against human L02 cells to IC50 for antiproliferative activity against human SK-OV-3 cells
[27] = target: Insulin-like growth factor 2 mRNA-binding protein 1 (Homo sapiens, UniProt Q9NZI8); assay: Binding affinity to His-tagged recombinant IGF2BP1 (unknown origin) assessed as dissociation constant by surface plasmon resonance assay
Chain of Insulin-like growth factor 2 mRNA-binding protein 1 (Q9NZI8 whole entry): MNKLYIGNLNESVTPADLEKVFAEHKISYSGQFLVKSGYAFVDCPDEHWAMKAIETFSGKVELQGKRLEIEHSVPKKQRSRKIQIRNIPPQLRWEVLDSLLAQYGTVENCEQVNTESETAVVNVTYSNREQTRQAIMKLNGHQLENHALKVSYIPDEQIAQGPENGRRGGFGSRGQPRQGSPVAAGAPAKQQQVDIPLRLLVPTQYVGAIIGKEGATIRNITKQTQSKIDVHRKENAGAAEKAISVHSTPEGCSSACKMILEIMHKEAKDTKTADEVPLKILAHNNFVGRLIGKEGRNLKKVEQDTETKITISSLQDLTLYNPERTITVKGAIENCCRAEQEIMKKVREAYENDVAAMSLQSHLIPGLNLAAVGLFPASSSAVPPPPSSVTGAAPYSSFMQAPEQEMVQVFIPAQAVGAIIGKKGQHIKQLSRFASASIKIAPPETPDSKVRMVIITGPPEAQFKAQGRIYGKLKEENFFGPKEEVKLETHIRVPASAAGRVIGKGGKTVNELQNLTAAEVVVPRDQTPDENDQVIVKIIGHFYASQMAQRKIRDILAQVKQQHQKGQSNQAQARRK

A549 [28] = assay: Induction of cell cycle arrest in human A549 cells assessed as accumulation of cells at G2 phase at 0.5 uM incubated for 24 hrs by PI staining based flow cytometric analysis (reference value: 9.26 %); assay type: functional
A549 [29] = assay: Induction of cell cycle arrest in human A549 cells assessed as accumulation of cells at G2 phase at 0.2 uM incubated for 24 hrs by PI staining based flow cytometric analysis (reference value: 9.26 %); assay type: functional
A549 [30] = assay: Induction of apoptosis in human A549 cells assessed as downregulation of BCL-2 expression incubated for 48 hrs by Western blotting analysis; assay type: functional, cell-based
[31] = Selectivity index, ratio of IC50 for antiproliferative activity against human L02 cells to IC50 for antiproliferative activity against human CFPAC-1 cells
A549 [32] = assay: Antiproliferative activity against human A549 cells assessed as cell growth inhibition incubated for 72 hrs by SRB assay; assay type: functional, cell-based; details: A549, 72 h

Question: With `CC(=O)OC(C)(C)/C=C/C(=O)[C@](C)(O)[C@H]1[C@H](O)C[C@@]2(C)[C@@H]3CC=C4[C@@H](C[C@H](OC(=O)Cn5ncn(-c6ccc(F)cc6)c5=O)C(=O)C4(C)C)[C@]3(C)C(=O)C[C@]12C` as the compound, how does the Activity (A549 [1]) read?
Answer: Its Activity is “Active”.

Question: And the IC50 (HeLa)?
Answer: The IC50 was 15 nM.

Question: And the Activity (A549 [2])?
Answer: The Activity was “Active”.

Question: What about the Activity (A549 [3]) of the same compound?
Answer: The Activity was 63.6%.

Question: What about the IC50 (MDA-MB-231) of the same compound?
Answer: The IC50 was 49 nM.

Question: What about the IC50 (HepG2) of the same compound?
Answer: Its IC50 is 80 nM.

Question: What about the selectivity ratio [4] of the same compound?
Answer: Its selectivity ratio is 11.1.

Question: What about the selectivity ratio [5] of the same compound?
Answer: Its selectivity ratio is 2.04.

Question: And the IC50 (A549 [6])?
Answer: Its IC50 is 5 nM.

Question: What about the Activity (A549 [7]) of the same compound?
Answer: The Activity was “Active”.

Question: And the Activity (A549 [8])?
Answer: The Activity was “Dose-Dependent Effect”.

Question: And the IC50 (HCT-116)?
Answer: The IC50 was 34 nM.

Question: And the Activity (A549 [9])?
Answer: Its Activity is “Dose-Dependent Effect”.

Question: What about the IC50 (A549 [10]) of the same compound?
Answer: Its IC50 is 92 nM.

Question: What about the Activity (A549 [11]) of the same compound?
Answer: The Activity was “Dose-Dependent Effect”.

Question: What about the Activity (A549 [12]) of the same compound?
Answer: Its Activity is 10.5%.

Question: And the Activity (A549 [13])?
Answer: Its Activity is “Dose-Dependent Effect”.

Question: And the Activity (A549 [14])?
Answer: Its Activity is 16.6%.

Question: What about the inhibition at 72 h, 1 µM [15] of the same compound?
Answer: The inhibition at 72 h, 1 µM was 68.9%.

Question: And the Activity (A549 [16])?
Answer: The Activity was “Dose-Dependent Effect”.

Question: And the IC50 (SK-OV-3)?
Answer: The IC50 was 54 nM.

Question: And the IC50 (BXPC-3)?
Answer: Its IC50 is 18 nM.

Question: What about the Activity (A549 [17]) of the same compound?
Answer: The Activity was 36.7%.

Question: What about the selectivity ratio [18] of the same compound?
Answer: Its selectivity ratio is 2.94.

Question: What about the Activity [19] of the same compound?
Answer: Its Activity is “Non-Toxic”.

Question: And the Activity [20]?
Answer: Its Activity is “Non-Toxic”.

Question: What about the “Ratio IC50” value [21] of the same compound?
Answer: The value was 1.14.

Question: And the Activity (A549 [22])?
Answer: Its Activity is “Active”.

Question: And the Activity (A549 [23])?
Answer: Its Activity is “Dose-Dependent Effect”.

Question: What about the Activity (A549 [24]) of the same compound?
Answer: Its Activity is “Dose-Dependent Effect”.

Question: And the inhibition in vivo at 0.5 mg/kg (A549 [25])?
Answer: Its inhibition in vivo at 0.5 mg/kg is 80%.

Question: What about the “Ratio IC50” value [26] of the same compound?
Answer: The value was 1.85.

Question: What about the Kd [27] of the same compound?
Answer: Its Kd is 2.88 nM.

Question: What about the Activity (A549 [28]) of the same compound?
Answer: Its Activity is 37.3%.

Question: What about the Activity (A549 [29]) of the same compound?
Answer: Its Activity is 16.4%.

Question: And the Activity (A549 [30])?
Answer: The Activity was “Dose-Dependent Effect”.

Question: What about the “Ratio IC50” value [31] of the same compound?
Answer: The value was 2.7.

Question: And the IC50 (A549 [32])?
Answer: Its IC50 is 9 nM.
